Experiment: recombinant UMI read abundance after kanamycin selection (control-corrected) (log10(CPM+1)); higher = more efficient recombination; extreme values may be limits of the assay; sequences stand for … in AGTGCAGAGAAAATCGGCCAGTTTTCTCTGCCTGCAGTCCGCATGCCGTGGGACCCCTTGGGTTCTAACCTGTTGCCTAGATTTATGCAGCGGACTGCCTTTCTCCCAAAGTGATAAACCGG…AGGTTGGTTTCACT; site = the 11-nt donor
In short: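 Counts of recombinant UMIs were reported as log10(CPM+1). Before that, they were converted to CPM, averaged over replicates and scaled using control-derived factors. They came from PCR across the donor–target junction after Escherichia coli carrying the pair library and target plasmid was plated on IPTG (0.07 mM) plus kanamycin, or unselected, in two replicates each.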
In the case of “CACTCCTCATGGACCGGTTTTCCCGGTAATCCGTATTTGCC (site TACTCCTCTGG)”, the “recombinant UMI read abundance (log10)” value is reported as 1.39.
For “CACTCCTCATGGACCGGTTTTCCCGGTAATCCGTATTTGCG (site CACTCCTCTAG)”, the “recombinant UMI read abundance (log10)” value was 1.11.
With “CACTCCTCATGGACCGGTTTTCCCGGTAATCCGTATTTGCG (site CACTCCTCTCG)” the “recombinant UMI read abundance (log10)” value was 1.71.
For “CACTCCTCATGGACCGGTTTTCCCGGTAATCCGTATTTGCG (site CACTCCTCTGG)”, the “recombinant UMI read abundance (log10)” value was 0.
For “CACTCCTCATGGACCGGTTTTCCCGGTAATCCGTATTTGCG (site CACTCCTCTTG)”, the “recombinant UMI read abundance (log10)” value was 2.29.
For “CACTCCTCATGGACCGGTTTTCCCGGTAATCCGTATTTGGC (site CACTCCTCTGA)”, the “recombinant UMI read abundance (log10)” value was 0.526.
In the case of “CACTCCTCATGGACCGGTTTTCCCGGTAATCCGTATTTGGC (site CACTCCTCTGC)”, the “recombinant UMI read abundance (log10)” value is reported as 2.75.
With “CACTCCTCATGGACCGGTTTTCCCGGTAATCCGTATTTGGC (site CACTCCTCTGG)” the “recombinant UMI read abundance (log10)” value was 0.943.
With “CACTCCTCATGGACCGGTTTTCCCGGTAATCCGTATTTGGC (site CACTCCTCTGT)” the “recombinant UMI read abundance (log10)” value was 2.45.
For “CACTGGGCATGGACCGGTTTTCCCGGTAATCCGTATTTGGA (site CACTAGGCTTC)”, the “recombinant UMI read abundance (log10)” value was 0.812.
With “CACTGGGCATGGACCGGTTTTCCCGGTAATCCGTATTTGGA (site CACTCGGCTTC)” the “recombinant UMI read abundance (log10)” value was 0.0182.
For “CACTGGGCATGGACCGGTTTTCCCGGTAATCCGTATTTGGA (site CACTGGGCTTC)”, the “recombinant UMI read abundance (log10)” value was 1.12.
With “CACTGGGCATGGACCGGTTTTCCCGGTAATCCGTATTTGGA (site CACTTGGCTTC)” the “recombinant UMI read abundance (log10)” value was 0.0159.
With “CACTTAACATGGACCGGTTTTCCCGGTAATCCGTATTTGCC (site CACTTAACTGG)” the “recombinant UMI read abundance (log10)” value was 0.774.
In the case of “CACTTCCCATGGACCGGTTTTCCCGGTAATCCGTATTTGCT (site CAATTCCCTAG)”, the “recombinant UMI read abundance (log10)” value is reported as 0.
In the case of “CACTTCCCATGGACCGGTTTTCCCGGTAATCCGTATTTGCT (site CACTTCCCTAG)”, the “recombinant UMI read abundance (log10)” value is reported as 0.617.
With “CACTTCCCATGGACCGGTTTTCCCGGTAATCCGTATTTGCT (site CAGTTCCCTAG)” the “recombinant UMI read abundance (log10)” value was 0.521.
In the case of “CACTTCCCATGGACCGGTTTTCCCGGTAATCCGTATTTGCT (site CATTTCCCTAG)”, the “recombinant UMI read abundance (log10)” value is reported as 0.
For “CACTTCTCATGGACCGGTTTTCCCGGTAATCCGTATTTGGG (site CACTTCTCTCC)”, the “recombinant UMI read abundance (log10)” value was 0.00463.
In the case of “CACTTCTCATGGACCGGTTTTCCCGGTAATCCGTATTTGGG (site CCCTTCTCTCC)”, the “recombinant UMI read abundance (log10)” value is reported as 0.00683.
For “CACTTCTCATGGACCGGTTTTCCCGGTAATCCGTATTTGGG (site CGCTTCTCTCC)”, the “recombinant UMI read abundance (log10)” value was 0.
For “CACTTCTCATGGACCGGTTTTCCCGGTAATCCGTATTTGGG (site CTCTTCTCTCC)”, the “recombinant UMI read abundance (log10)” value was 0.
With “CACTTGACATGGACCGGTTTTCCCGGTAATCCGTATTTGCT (site AACTTGACTAG)” the “recombinant UMI read abundance (log10)” value was 0.
For “CACTTGACATGGACCGGTTTTCCCGGTAATCCGTATTTGCT (site CACTTGACTAG)”, the “recombinant UMI read abundance (log10)” value was 2.31.
In the case of “CACTTGACATGGACCGGTTTTCCCGGTAATCCGTATTTGCT (site GACTTGACTAG)”, the “recombinant UMI read abundance (log10)” value is reported as 0.
For “CACTTGACATGGACCGGTTTTCCCGGTAATCCGTATTTGCT (site TACTTGACTAG)”, the “recombinant UMI read abundance (log10)” value was 0.365.
For “CAGAAGCCATGGACCGGTTTTCCCGGTAATCCGTATTTGGT (site CAGAAGCCTAC)”, the “recombinant UMI read abundance (log10)” value was 0.535.
For “CAGAAGCCATGGACCGGTTTTCCCGGTAATCCGTATTTGTT (site CAGAAGCCTAA)”, the “recombinant UMI read abundance (log10)” value was 1.14.
In the case of “CAGAAGCCATGGACCGGTTTTCCCGGTAATCCGTATTTGTT (site CGGAATCCTAA)”, the “recombinant UMI read abundance (log10)” value is reported as 0.
For “CAGAATACATGGACCGGTTTTCCCGGTAATCCGTATTTGTT (site CAGAATACTAA)”, the “recombinant UMI read abundance (log10)” value was 2.12.
In the case of “CAGAATACATGGACCGGTTTTCCCGGTAATCCGTATTTGTT (site CGGAATCCTAA)”, the “recombinant UMI read abundance (log10)” value is reported as 0.
With “CAGAATTCATGGACCGGTTTTCCCGGTAATCCGTATTTGGA (site CAGAATTCTTC)” the “recombinant UMI read abundance (log10)” value was 3.34.
In the case of “CAGATACCATGGACCGGTTTTCCCGGTAATCCGTATTTGGA (site CAGATACCTTC)”, the “recombinant UMI read abundance (log10)” value is reported as 0.0326.
For “CAGCACGCATGGACCGGTTTTCCCGGTAATCCGTATTTGCA (site CAGCACGCTTG)”, the “recombinant UMI read abundance (log10)” value was 2.58.
In the case of “CAGCTCACATGGACCGGTTTTCCCGGTAATCCGTATTTGAT (site AAGCTCACTAT)”, the “recombinant UMI read abundance (log10)” value is reported as 0.444.
In the case of “CAGCTCACATGGACCGGTTTTCCCGGTAATCCGTATTTGAT (site CAGCTCACTAT)”, the “recombinant UMI read abundance (log10)” value is reported as 2.31.
For “CAGCTCACATGGACCGGTTTTCCCGGTAATCCGTATTTGAT (site GAGCTCACTAT)”, the “recombinant UMI read abundance (log10)” value was 0.00621.
In the case of “CAGCTCACATGGACCGGTTTTCCCGGTAATCCGTATTTGAT (site TAGCTCACTAT)”, the “recombinant UMI read abundance (log10)” value is reported as 0.404.
For “CAGCTCGCATGGACCGGTTTTCCCGGTAATCCGTATTTGAC (site CAGCTCGCTGT)”, the “recombinant UMI read abundance (log10)” value was 2.55.
For “CAGGAAACATGGACCGGTTTTCCCGGTAATCCGTATTTGCA (site CAGGAAACTTG)”, the “recombinant UMI read abundance (log10)” value was 1.79.
For “CAGGAAACATGGACCGGTTTTCCCGGTAATCCGTATTTGCA (site CCGGAAACTTG)”, the “recombinant UMI read abundance (log10)” value was 0.
For “CAGGAAACATGGACCGGTTTTCCCGGTAATCCGTATTTGCA (site CGGGAAACTTG)”, the “recombinant UMI read abundance (log10)” value was 0.
In the case of “CAGGAAACATGGACCGGTTTTCCCGGTAATCCGTATTTGCA (site CTGGAAACTTG)”, the “recombinant UMI read abundance (log10)” value is reported as 2.49.
For “CAGGAATCATGGACCGGTTTTCCCGGTAATCCGTATTTGCA (site CAGGAATCTTG)”, the “recombinant UMI read abundance (log10)” value was 3.17.
For “CAGGAATCATGGACCGGTTTTCCCGGTAATCCGTATTTGCG (site AAGGAATCTCG)”, the “recombinant UMI read abundance (log10)” value was 1.51.
With “CAGGAATCATGGACCGGTTTTCCCGGTAATCCGTATTTGCG (site CAGGAATCTCG)” the “recombinant UMI read abundance (log10)” value was 3.26.
For “CAGGAATCATGGACCGGTTTTCCCGGTAATCCGTATTTGCG (site GAGGAATCTCG)”, the “recombinant UMI read abundance (log10)” value was 0.395.
For “CAGGAATCATGGACCGGTTTTCCCGGTAATCCGTATTTGCG (site TAGGAATCTCG)”, the “recombinant UMI read abundance (log10)” value was 2.69.
In the case of “CAGGACTCATGGACCGGTTTTCCCGGTAATCCGTATTTGTT (site CAGGACTCTAA)”, the “recombinant UMI read abundance (log10)” value is reported as 2.96.
With “CAGGCATCATGGACCGGTTTTCCCGGTAATCCGTATTTGTC (site CAGGCATCTGA)” the “recombinant UMI read abundance (log10)” value was 2.76.
For “CAGGCGTCATGGACCGGTTTTCCCGGTAATCCGTATTTGGA (site CAGGCGTCTTC)”, the “recombinant UMI read abundance (log10)” value was 1.89.
In the case of “CAGGGCCCATGGACCGGTTTTCCCGGTAATCCGTATTTGTG (site CAGGGCCCTCA)”, the “recombinant UMI read abundance (log10)” value is reported as 0.282.
With “CAGGGTGCATGGACCGGTTTTCCCGGTAATCCGTATTTGGT (site CAGGGTGCTAC)” the “recombinant UMI read abundance (log10)” value was 1.49.
For “CAGTACACATGGACCGGTTTTCCCGGTAATCCGTATTTGCT (site CAGTACACTAG)”, the “recombinant UMI read abundance (log10)” value was 2.43.
With “CAGTCAACATGGACCGGTTTTCCCGGTAATCCGTATTTGTG (site CAGTCAACTCA)” the “recombinant UMI read abundance (log10)” value was 0.0625.
With “CAGTCGACATGGACCGGTTTTCCCGGTAATCCGTATTTGCG (site CAGTCGACTCA)” the “recombinant UMI read abundance (log10)” value was 0.
For “CAGTCGACATGGACCGGTTTTCCCGGTAATCCGTATTTGCG (site CAGTCGACTCC)”, the “recombinant UMI read abundance (log10)” value was 0.
With “CAGTCGACATGGACCGGTTTTCCCGGTAATCCGTATTTGCG (site CAGTCGACTCG)” the “recombinant UMI read abundance (log10)” value was 0.869.
With “CAGTCGACATGGACCGGTTTTCCCGGTAATCCGTATTTGCG (site CAGTCGACTCT)” the “recombinant UMI read abundance (log10)” value was 0.00924.
For “CAGTCGACATGGACCGGTTTTCCCGGTAATCCGTATTTGGC (site CAGTCGACTAC)”, the “recombinant UMI read abundance (log10)” value was 0.105.
For “CAGTCGACATGGACCGGTTTTCCCGGTAATCCGTATTTGGC (site CAGTCGACTCC)”, the “recombinant UMI read abundance (log10)” value was 0.00601.
With “CAGTCGACATGGACCGGTTTTCCCGGTAATCCGTATTTGGC (site CAGTCGACTGC)” the “recombinant UMI read abundance (log10)” value was 1.37.
With “CAGTCGACATGGACCGGTTTTCCCGGTAATCCGTATTTGGC (site CAGTCGACTTC)” the “recombinant UMI read abundance (log10)” value was 0.0416.
In the case of “CAGTCGCCATGGACCGGTTTTCCCGGTAATCCGTATTTGGG (site CAGTCGACTCC)”, the “recombinant UMI read abundance (log10)” value is reported as 0.0111.
With “CAGTCGCCATGGACCGGTTTTCCCGGTAATCCGTATTTGGG (site CAGTCGCCTCC)” the “recombinant UMI read abundance (log10)” value was 0.0028.
With “CAGTCGCCATGGACCGGTTTTCCCGGTAATCCGTATTTGGG (site CAGTCGGCTCC)” the “recombinant UMI read abundance (log10)” value was 0.0208.
For “CAGTCGCCATGGACCGGTTTTCCCGGTAATCCGTATTTGGG (site CAGTCGTCTCC)”, the “recombinant UMI read abundance (log10)” value was 0.
With “CAGTCGGCATGGACCGGTTTTCCCGGTAATCCGTATTTGCT (site CAGTCGGCTAG)” the “recombinant UMI read abundance (log10)” value was 0.438.
With “CAGTGGACATGGACCGGTTTTCCCGGTAATCCGTATTTGTG (site CAGTGGACTCA)” the “recombinant UMI read abundance (log10)” value was 1.57.
In the case of “CAGTTTACATGGACCGGTTTTCCCGGTAATCCGTATTTGCT (site CAGTTTACTAG)”, the “recombinant UMI read abundance (log10)” value is reported as 2.07.
For “CAGTTTACATGGACCGGTTTTCCCGGTAATCCGTATTTGCT (site CCGTTTACTAG)”, the “recombinant UMI read abundance (log10)” value was 0.978.
For “CAGTTTACATGGACCGGTTTTCCCGGTAATCCGTATTTGCT (site CGGTTTACTAG)”, the “recombinant UMI read abundance (log10)” value was 0.
For “CAGTTTACATGGACCGGTTTTCCCGGTAATCCGTATTTGCT (site CTGTTTACTAG)”, the “recombinant UMI read abundance (log10)” value was 0.662.
In the case of “CATACACCATGGACCGGTTTTCCCGGTAATCCGTATTTGTA (site CATACACCTTA)”, the “recombinant UMI read abundance (log10)” value is reported as 0.00749.
For “CATACAGCATGGACCGGTTTTCCCGGTAATCCGTATTTGTG (site CATACAGCTCA)”, the “recombinant UMI read abundance (log10)” value was 1.18.

— the supplement of paper PMC11208160
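Note: IS621 bridge recombinase in Escherichia coli cells against a fixed T5 target plasmid.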
